From EP1213282A1, “Substituted imidazolium salts and their use for the inhibition of protein ageing” (ALTEON Inc., priority 1996, dated 1997)
Like-named read-outs stand apart in the source and are kept apart here.

Key:
[1] = target: T1, cross-linking of glycated bovine serum albumin (AGE-BSA) to the rat tail tendon collagen (Bos taurus, UniProt P02769); assay: Inhibition of cross-linking of glycated BSA (AGE-BSA) to collagen-coated plate, ELISA (Example 4); type: biochemical; settings: for inhibition at 10000 µM: 4 h
T1 construct: The AGE-BSA was prepared by incubating BSA at a concentration of 200 mg per ml with 200 mM glucose
Protocol: The following method was used to evaluate the ability of the compounds of the present invention to inhibit the cross-linking of glycated bovine serum albumin (AGE-BSA) to the rat tail tendon collagen coated 96-well plate.
The glycated BSA was then extensively dialyzed against phosphate buffer solution (PBS) for 48 hours with additional 5 times buffer exchanges. […] The blocking solution was removed from the wells by washing the plate twice with PAS-Tween 20 solution (0.05% Tween 20) using a NUNC-multiprobe or Dynatech ELISA-plate washer. […] The unbrowned BSA in PBS buffer with or without testing compound were added to the separate wells as the blanks. The uncross-linked AGE-BSA was then removed by washing the wells three times with PBS-Tween buffer. The cross-linked AGE-BSA to the tail tendon coated plate was then quantitated by the polyclonal antibody raised against AGE-RNase. After a one-hour incubation period, AGE antibody was removed by washing 4 times with PBS-Tween.
The bound AGE antibody was then detected with the addition of horseradish peroxidase-conjugated secondary antibody, e.g., goat anti-rabbit immunoglobulin and incubation for 30 minutes. […] The reaction was allowed for an additional 15 minutes and the absorbance was read at 410 nm in a Dynatech plate reader.

[2] = target: T2, AGE-BSA previously crosslinked to the collagen (Bos taurus, UniProt P02769); assay: AGE cross-link breaking sandwich enzyme immunoassay (Example 6); type: biochemical; settings: 10 mM, 16 hours, 37°C
T2 construct: purchased Calbiochem (BSA Type V); Collaborative Biomedical Products (Biocoat collagen plates)
Protocol: In order to ascertain the ability of the compounds of the instant invention to "break" or reverse already formed advanced glycosylation endproducts, a novel sandwich enzyme immunoassay was developed which detects breaking of AGE (Advanced glycosylation endproduct) moieties from AGE-crosslinked protein. The assay utilizes collagen-coated 96 well microtiter plates that are obtained commercially. AGE-modified protein (AGE-BSA), prepared, for instance, as in Example 8, above, is incubated on the collagen-coated wells for four hours, is washed off the wells with PBS-Tween and solutions of the test compounds are added. Following an incubation period of 16 hours (37°C) cross-link-breaking is detected using an antibody raised against AGE-ribonuclease or with an antibody against BSA. Positive results in this assay indicate compounds that are capable of reducing the amount of AGE-BSA previously crosslinked to the collagen by breaking the crosslinks and allowing the liberated material to be flushed away in subsequent washing steps. Details of the assay are as follows:
• 1. AGE-BSA stock solutions were prepared as follows. Sodium phosphate buffer (0.4 M) was prepared by dissolving 6 grams of monobasic sodium phosphate in 100 ml of distilled water, 7 grams of dibasic sodium phosphate (0.4 M) in 100 ml of distilled water and adjusting the pH of the dibasic solution to 7.4 with the monobasic solution. Sodium azide (0.02 grams) was added per 100 ml volume to inhibit bacterial growth. The BSA solution was prepared as follows: 400 mg of Type V BSA (bovine serum albumin) was added for each ml of sodium phosphate buffer (above). A 400 mM glucose solution was prepared by dissolving 7.2 grams of dextrose in 100 ml of sodium phosphate buffer (above). The BSA and glucose solutions were mixed 1:1 and incubated at 37°C for 12 weeks. The pH of the incubation mixture was monitored weekly and adjusted to pH 7.4 if necessary. After 12 weeks, the AGE-BSA solution was dialyzed against PBS for 48 hours with four buffer changes, each at a 1:500 ratio of solution to dialysis buffer. Protein concentration was determined by the micro-Lowry method. The AGE-BSA stock solution was aliquoted and stored at -20°C. Dilute solutions of AGE-BSA were unstable when stored at -20°C. • 2. Working solutions for crosslinking and breaking studies were prepared as follows. Test compounds were dissolved in PBS and the pH was adjusted to pH 7.4 if necessary. AGE-BSA stock solution was diluted in PBS to measure maximum crosslinking. The concentration of AGE-BSA necessary to achieve the optimum sensitivity was determined by initial titration of each lot of AGE-BSA. • 3. Wash buffer ("PBS-Tween") was prepared as follows. PBS was prepared by dissolving the following salts in one liter of distilled water: NaCl, 8 grams; KCl, 0.2 gram, KH2PO4. 1.15 grams; NaN3, 0.2 gram. Tween-20 was added to a final concentration of 0.05% (vol/vol). • 4. Substrates for detection of secondary antibody binding were prepared by diluting the HRP substrate buffer 1:10 in distilled water and mixing with ABTS chromogen 1:50 just prior to use.
• 1. Biocoat plates were blocked with 300 µl of "Superbloc". Plates were blocked for one hour at room temperature and were washed with PBS-Tween three times with the Dynatech platewasher before addition of test reagents. • 2. Each experiment was set up in the following manner. The first three wells of the Biocoat plate were used for the reagent blank. Fifty microliters of solutions AGE-BSA were added to test wells in triplicate and only PBS in blank wells. The plate was incubated at 37°C for four hours and washed with PBS-Tween three times. Fifty microliters of PBS was added to the control wells and 50 µl of the test "AGE Cross-link breaker" compound was added to the test wells and blank. The plate was incubated overnight (approximately 16 hours) with the test "AGE Cross-link breaker" compound, followed by washing in PBS-Tween before addition of primary antibody (below). • 3. […]

[3] = Inhibition of ribose-induced cross-linking of N-acetyl glycyl-lysine methyl ester, fluorescence (Example 5); type: biochemical; settings: 37°C, 16-24 hours, pH 7.4; fluorescence 350/400 nm
Protocol: Materials: • N-acetylglycyllysine methyl ester (DP in formula below) • Ribose (R in formula below) • Test compounds (C in formula below)
Reagents: • 0.5 M sodium phosphate buffer pH 7.4 • N-acetylglycyllysine methyl ester in 0.5M sodium phosphate buffer, pH 7.4 Ribose: 800 mM
Test compounds dissolved in the above buffer and the pH is adjusted to 7.4, if necessary
Reaction mixtures are prepared as follows:
and incubated at 37°C for 16-24 hours. At the end of the incubation period, the fluorescence is read using an excitation wavelength of 350 nm and emission wavelength of 400 nm. The inhibition of the cross-linking is calculated from the decrease in the fluorescence in the presence of the test compounds according to the formula: […] [formula]
The Inhibition by various test compounds (IC50) is as follows: […]

[4] = tested on: fixed protein (gelatin. i.e., collagen) surface; assay: Surface browning experiment on gelatin/paper disks (Example 10); settings: 100 Mm glucose-6-phosphate, one week at 50°C; Peridex at final 0.04% chlorhexidine
Protocol: To further study the ability of inhibitors of nonenzymatic browning to prevent the discoloration of protein on a surface, such as that which occurs on the tooth surface, the following surface browning experiment is performed. As a substitute for a pellicle-covered tooth surface. unexposed and developed photographic paper is used to provide a fixed protein (gelatin. i.e., collagen) surface on a paper backing. Five millimeter circles are punched and immersed for one week at 50°C in a solution of 100 Mm glucose-6-phosphate in a 0.5 M phosphate buffer, pH 7.4, containing 3 Mm sodium azide. Glucose-6-phosphate is a sugar capable of participating in nonenzymatic browning at a more rapid rate than glucose. In addition to the glucose-6-phosphate, chlorhexidine and/or a compound of Formula I are included. After incubation, the gelatin/paper disks are rinsed with water, observed for brown color, and photographed.

[5] = pH 7.4, at 10 mM, 37°C, 4 hours, pH 7.4, read-out: %Inh.
[6] = primary antibody anti-AGE-RNase, read-out: %breaking allowed, Pr AbαAGE
[7] = primary antibody anti-BSA, read-out: %breaking allowed, PrAbαBSA

T1 sequence (P02769 25-607): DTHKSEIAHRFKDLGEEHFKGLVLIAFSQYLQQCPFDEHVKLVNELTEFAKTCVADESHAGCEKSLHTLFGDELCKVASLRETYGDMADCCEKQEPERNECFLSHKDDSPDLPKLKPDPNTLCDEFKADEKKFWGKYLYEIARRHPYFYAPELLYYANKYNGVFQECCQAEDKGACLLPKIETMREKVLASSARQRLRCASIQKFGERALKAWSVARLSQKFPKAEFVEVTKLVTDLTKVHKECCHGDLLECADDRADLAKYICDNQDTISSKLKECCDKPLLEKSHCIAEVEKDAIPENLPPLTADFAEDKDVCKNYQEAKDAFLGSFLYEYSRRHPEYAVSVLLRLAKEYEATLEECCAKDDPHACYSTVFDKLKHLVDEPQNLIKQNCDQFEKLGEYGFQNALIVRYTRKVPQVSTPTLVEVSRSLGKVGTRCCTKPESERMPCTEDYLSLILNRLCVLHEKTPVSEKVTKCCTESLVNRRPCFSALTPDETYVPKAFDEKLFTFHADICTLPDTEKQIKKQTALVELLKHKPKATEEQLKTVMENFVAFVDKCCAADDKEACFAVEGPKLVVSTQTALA
T2 sequence (P02769 25-607): as above
T2 sequence (P02454 152-1207 partner limits assumed): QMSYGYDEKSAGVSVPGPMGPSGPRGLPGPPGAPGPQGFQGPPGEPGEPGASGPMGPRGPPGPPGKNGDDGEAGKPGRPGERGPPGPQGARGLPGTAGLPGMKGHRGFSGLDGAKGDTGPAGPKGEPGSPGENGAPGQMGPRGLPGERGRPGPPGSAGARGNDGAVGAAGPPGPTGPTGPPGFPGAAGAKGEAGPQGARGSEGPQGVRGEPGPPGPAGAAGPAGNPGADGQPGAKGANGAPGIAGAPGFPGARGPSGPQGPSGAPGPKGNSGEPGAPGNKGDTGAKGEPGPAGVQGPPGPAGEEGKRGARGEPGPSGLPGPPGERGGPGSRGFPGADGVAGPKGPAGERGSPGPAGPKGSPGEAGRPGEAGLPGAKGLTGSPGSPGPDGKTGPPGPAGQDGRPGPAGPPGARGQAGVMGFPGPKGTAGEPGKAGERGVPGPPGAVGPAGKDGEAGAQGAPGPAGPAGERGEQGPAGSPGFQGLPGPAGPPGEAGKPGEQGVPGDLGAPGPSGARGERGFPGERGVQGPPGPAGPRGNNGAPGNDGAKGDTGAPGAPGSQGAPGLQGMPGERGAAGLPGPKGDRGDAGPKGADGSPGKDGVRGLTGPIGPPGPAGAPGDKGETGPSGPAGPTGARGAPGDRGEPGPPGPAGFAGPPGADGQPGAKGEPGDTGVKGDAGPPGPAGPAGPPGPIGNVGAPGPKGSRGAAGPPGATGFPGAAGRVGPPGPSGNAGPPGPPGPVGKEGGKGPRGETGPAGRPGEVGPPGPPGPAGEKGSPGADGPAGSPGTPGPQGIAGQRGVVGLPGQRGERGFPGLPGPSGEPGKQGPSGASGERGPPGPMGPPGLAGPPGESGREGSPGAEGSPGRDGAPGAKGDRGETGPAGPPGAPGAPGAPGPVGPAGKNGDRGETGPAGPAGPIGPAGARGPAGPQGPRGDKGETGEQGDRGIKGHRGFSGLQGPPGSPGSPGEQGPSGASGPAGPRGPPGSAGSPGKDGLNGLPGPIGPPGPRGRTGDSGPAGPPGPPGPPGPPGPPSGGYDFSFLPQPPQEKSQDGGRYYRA
T2 sequence (P02466 86-1125 partner limits assumed): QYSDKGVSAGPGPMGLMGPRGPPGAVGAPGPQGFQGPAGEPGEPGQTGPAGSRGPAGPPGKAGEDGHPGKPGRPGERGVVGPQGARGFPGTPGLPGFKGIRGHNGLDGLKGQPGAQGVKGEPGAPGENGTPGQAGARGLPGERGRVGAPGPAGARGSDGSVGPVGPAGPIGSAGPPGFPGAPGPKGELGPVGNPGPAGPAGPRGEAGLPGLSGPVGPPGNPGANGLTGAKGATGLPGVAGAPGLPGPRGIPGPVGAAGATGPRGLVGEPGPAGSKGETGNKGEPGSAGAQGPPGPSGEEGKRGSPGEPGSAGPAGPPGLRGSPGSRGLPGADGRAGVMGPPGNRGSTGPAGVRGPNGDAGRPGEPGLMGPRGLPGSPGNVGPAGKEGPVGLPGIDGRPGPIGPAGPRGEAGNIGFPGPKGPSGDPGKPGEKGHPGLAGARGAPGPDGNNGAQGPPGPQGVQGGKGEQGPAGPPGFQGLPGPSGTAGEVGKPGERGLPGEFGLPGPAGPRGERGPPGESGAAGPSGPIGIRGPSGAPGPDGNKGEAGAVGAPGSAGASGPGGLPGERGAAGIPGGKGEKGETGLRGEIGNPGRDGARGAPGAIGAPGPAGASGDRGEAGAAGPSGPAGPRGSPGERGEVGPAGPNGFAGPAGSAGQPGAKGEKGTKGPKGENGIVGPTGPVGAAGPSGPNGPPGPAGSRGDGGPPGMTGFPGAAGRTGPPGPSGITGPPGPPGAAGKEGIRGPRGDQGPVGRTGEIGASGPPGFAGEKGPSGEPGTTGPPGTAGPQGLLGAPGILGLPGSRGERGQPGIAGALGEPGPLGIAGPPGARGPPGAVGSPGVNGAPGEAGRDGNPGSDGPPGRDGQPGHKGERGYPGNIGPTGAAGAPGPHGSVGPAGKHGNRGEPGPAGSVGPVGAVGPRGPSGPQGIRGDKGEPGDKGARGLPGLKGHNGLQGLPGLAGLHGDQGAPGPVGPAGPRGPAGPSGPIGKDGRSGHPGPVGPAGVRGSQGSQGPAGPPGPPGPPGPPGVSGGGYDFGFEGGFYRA

| Compound | inhibition at 10000 µM [1, 5] [%] | inhibition at 10000 µM [2, 6] [%] | inhibition at 10000 µM [2, 7] [%] | other results |
| --- | --- | --- | --- | --- |
| CCOC(=O)CCCCCn1cc[n+](CC(=O)c2cccc(OC)c2)c1 [1-(ethoxycarbonylpentyl)-3-[2-(3'-methoxyphenyl)-2-oxoethyl]-imidazolium bromide] | 40 | – | – | – |
| CCOC(=O)CCCCCn1cc[n+](CC(=O)c2ccc(OC)cc2)c1 [1-(ethoxycarbonylpentyl)-3-[2-(4'-methoxyphenyl)-2-oxoethyl]-imidazolium bromide] | 23 | – | – | %Inh. ([1]; at 10 mM, 37°C, 4 hours, pH 7.4, 240 min, 10000 µM): 40% |
| CCOC(=O)CCCCCn1cc[n+](CC(=O)c2ccc(C)cc2)c1 [1-(ethoxycarbonylpentyl)-3-[2-(4'-methylphenyl)-2-oxoethyl]-imidazolium bromide] | 33 | – | – | – |
| CCN(CC)c1ccc(C(=O)C[n+]2ccn(C)c2)cc1 [1-Methyl-3-[2-(4'-diethylaminophenyl)-2-oxo-ethyl]-imidazolium bromide] | – | 32 | 28 | IC50 [3]: 530 µM |
| COc1cccc(C(=O)C[n+]2ccn(C)c2)c1 [1-methyl-3-[2-(3'-methoxyphenyl)-2-oxoethyl]-imidazolium bromide] | – | 20 | 24 | – |
| Cn1cc[n+](CC(=O)c2ccc(Br)cc2)c1 [1-methyl-3-[2-(4'-bromophenyl)-2-oxoethyl]-imidazolium bromide] | – | – | – | inhibition at 10000 µM ([1]; pH 7.4, read-out: %Inh.): 23% |
| Cn1cc[n+](CC(=O)c2ccc(F)cc2)c1 [1-methyl-3-[2-(4'-fluorophenyl)-2-oxoethyl]-imidazolium bromide] | 29 | – | – | – |
| COc1ccc(C(=O)C[n+]2ccn(C)c2)cc1 [1-methyl-3-[2-(4'-methoxyphenyl)-2-oxoethyl]-imidazolium bromide] | – | 38 | 27 | – |
| [H]/N=C(\N/C(=N/[H])NCCCCCCNC(=N)NC(=N)Nc1ccc(Cl)cc1)Nc1ccc(Cl)cc1 [chlorhexidine] | – | – | – | brown color of gelatin/paper disks [4]: significant browning |
